Reference: the NIST ThermoML archive (doi:10.1021/je050054u)

Settings: Liquid, Closed cell (Static) method

CCF [fluoroethane]
Settings	vapor or sublimation pressure [kPa]
235.69 K	101.5
235.74 K	101.7
235.79 K	101.9
235.84 K	102.2
235.89 K	102.4
235.94 K	102.6
236 K	102.9
236.09 K	103.4
237.11 K	108.3
238.07 K	113.3
240.11 K	124.1
242.12 K	135.4
244.1 K	147.6
245.09 K	153.8
247.09 K	167.1
249.1 K	181.5
251.07 K	196.3
253.11 K	212.7
255.11 K	229.7
257.13 K	247.8
259.11 K	267.6
261.11 K	288
263.12 K	309.5
264.11 K	320.7
265.1 K	332.4
266.12 K	344.5
267.13 K	356.6
268.13 K	369.1
269.13 K	382
270.13 K	395.3
271.13 K	408.8
272.15 K	422.9
273.12 K	436.7
274.11 K	451.2
275.11 K	466
276.14 K	481.8
277.14 K	497.5
278.17 K	513.9
279.14 K	529.9
280.13 K	546.6
281.13 K	563.9
282.16 K	581.9
283.14 K	599.6
285.18 K	636.5
287.13 K	675.1
288.13 K	695.2
290.14 K	737.5
292.01 K	777.9
294.03 K	824.2
296.04 K	871.8
298.07 K	921.9
300.05 K	972.9
302 K	1024.9
304.03 K	1081.4
306.12 K	1141.9
308.08 K	1200.9
310.32 K	1270.6
312.19 K	1330.5
314.18 K	1398.1
316.32 K	1472.8
316.33 K	1473.6
318.17 K	1539.8
320.14 K	1613.2
322.13 K	1690.2
324.12 K	1770.2
326.11 K	1852.2
328.13 K	1938.9
330.15 K	2027
332.15 K	2119.3
333.15 K	2167.4
334.16 K	2215.1
335.15 K	2263.9
336.15 K	2313.2
337.15 K	2363.2
338.16 K	2414.5
339.15 K	2465.8
340.16 K	2518.5
341.15 K	2572
342.15 K	2626.3
343.15 K	2681.7
344.14 K	2737.4
345.15 K	2794.3
346.15 K	2852.2
347.15 K	2910.8
348.15 K	2970.7
349.15 K	3030.8
350.15 K	3092.2
351.15 K	3154.5
352.15 K	3218
353.14 K	3282
354.15 K	3347.6
355.15 K	3414.2
356.15 K	3481.2
357.14 K	3549.5
358.14 K	3619.1
359.14 K	3689.1
360.15 K	3761.3
361.15 K	3834
362.16 K	3908
363.14 K	3982.2
364.14 K	4058.4
364.15 K	4060.2
365.14 K	4138
366.15 K	4216.8
367.15 K	4295.8
368.16 K	4376.8
369.14 K	4460.1
370.14 K	4543.5
371.14 K	4627.6
372.14 K	4713.9
